Test results taken from ChEMBL document CHEMBL4312009, “Multigram scale synthesis of polycyclic lactones and evaluation of antitumor and other biological properties” (Eur J Med Chem, 2020).

Tests used:
[1] = system: HeLa; experiment: Cell cycle arrest in human HeLa cells incubated for 21 hrs by propidium iodide based flow cytometry; format: functional
[2] = target: Proprotein convertase subtilisin/kexin type 9 (Homo sapiens) (UniProt Q8NBP7); experiment: Inhibition of human PCSK9 at 40 uM relative to control
Chain of Proprotein convertase subtilisin/kexin type 9 (Homo sapiens) (Q8NBP7 31-152 limits assumed): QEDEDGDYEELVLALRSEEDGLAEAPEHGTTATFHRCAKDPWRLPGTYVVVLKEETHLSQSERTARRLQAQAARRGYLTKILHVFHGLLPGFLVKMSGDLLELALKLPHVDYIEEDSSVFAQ
Chain of Proprotein convertase subtilisin/kexin type 9 (Homo sapiens) (Q8NBP7 153-692 limits assumed): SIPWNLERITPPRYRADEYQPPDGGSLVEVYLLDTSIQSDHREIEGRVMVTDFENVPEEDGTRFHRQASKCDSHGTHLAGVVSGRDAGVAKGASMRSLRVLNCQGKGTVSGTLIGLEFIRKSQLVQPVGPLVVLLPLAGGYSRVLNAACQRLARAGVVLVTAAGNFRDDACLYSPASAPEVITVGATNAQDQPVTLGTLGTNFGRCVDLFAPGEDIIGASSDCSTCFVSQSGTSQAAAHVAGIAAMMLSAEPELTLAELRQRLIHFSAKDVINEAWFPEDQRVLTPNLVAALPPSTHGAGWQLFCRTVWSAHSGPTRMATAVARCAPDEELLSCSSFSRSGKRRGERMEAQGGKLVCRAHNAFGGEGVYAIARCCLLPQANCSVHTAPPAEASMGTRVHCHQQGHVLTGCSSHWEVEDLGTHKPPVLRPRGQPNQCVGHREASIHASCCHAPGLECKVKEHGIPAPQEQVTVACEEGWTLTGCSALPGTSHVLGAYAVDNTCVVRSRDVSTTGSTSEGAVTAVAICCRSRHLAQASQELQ

[3] = system: HeLa; experiment: Cell cycle arrest in human HeLa cells assessed as effect on mitotic index incubated for 21 hrs by propidium iodide based flow cytometry; format: functional
[4] = system: GTPase KRas (Homo sapiens), P01116 [UNDEFINED MUTATION]; experiment: Inhibition of KRas mutant in human DLD1 cells assessed as cell viability by measuring ATP; format: cell-based
Chain of GTPase KRas (Homo sapiens), P01116 [UNDEFINED MUTATION] (P01116 whole entry, looked up, change not shown): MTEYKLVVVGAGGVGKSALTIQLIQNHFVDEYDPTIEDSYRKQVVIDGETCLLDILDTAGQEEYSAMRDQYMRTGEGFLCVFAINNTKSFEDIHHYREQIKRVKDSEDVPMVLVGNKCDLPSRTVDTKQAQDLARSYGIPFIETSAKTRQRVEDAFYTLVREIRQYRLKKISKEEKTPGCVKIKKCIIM

[5] = system: HeLa; experiment: Cell cycle arrest in human HeLa cells assessed as effect on 2N stage incubated for 21 hrs by propidium iodide based flow cytometry; format: functional
[6] = Activation of wnt pathway in mouse C2C12 cells assessed as increase in alkaline phosphatase activity; format: cell-based
[7] = target: T1, Angiopoietin-like protein 8 (Homo sapiens) (UniProt Q6UXH0); experiment: Inhibition of human Angptl8 at 40 uM relative to control
T1 sequence (whole entry): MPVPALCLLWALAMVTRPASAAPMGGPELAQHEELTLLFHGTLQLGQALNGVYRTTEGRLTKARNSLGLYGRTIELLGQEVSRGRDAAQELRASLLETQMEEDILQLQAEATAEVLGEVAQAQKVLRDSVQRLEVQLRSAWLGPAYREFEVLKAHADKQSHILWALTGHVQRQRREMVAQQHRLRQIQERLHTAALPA

[8] = target: Sodium channel protein type 9 subunit alpha (Homo sapiens) (UniProt Q15858); experiment: Inhibition of human Nav1.7 at 40 uM relative to control
Chain of Sodium channel protein type 9 subunit alpha (Homo sapiens) (Q15858 whole entry, looked up): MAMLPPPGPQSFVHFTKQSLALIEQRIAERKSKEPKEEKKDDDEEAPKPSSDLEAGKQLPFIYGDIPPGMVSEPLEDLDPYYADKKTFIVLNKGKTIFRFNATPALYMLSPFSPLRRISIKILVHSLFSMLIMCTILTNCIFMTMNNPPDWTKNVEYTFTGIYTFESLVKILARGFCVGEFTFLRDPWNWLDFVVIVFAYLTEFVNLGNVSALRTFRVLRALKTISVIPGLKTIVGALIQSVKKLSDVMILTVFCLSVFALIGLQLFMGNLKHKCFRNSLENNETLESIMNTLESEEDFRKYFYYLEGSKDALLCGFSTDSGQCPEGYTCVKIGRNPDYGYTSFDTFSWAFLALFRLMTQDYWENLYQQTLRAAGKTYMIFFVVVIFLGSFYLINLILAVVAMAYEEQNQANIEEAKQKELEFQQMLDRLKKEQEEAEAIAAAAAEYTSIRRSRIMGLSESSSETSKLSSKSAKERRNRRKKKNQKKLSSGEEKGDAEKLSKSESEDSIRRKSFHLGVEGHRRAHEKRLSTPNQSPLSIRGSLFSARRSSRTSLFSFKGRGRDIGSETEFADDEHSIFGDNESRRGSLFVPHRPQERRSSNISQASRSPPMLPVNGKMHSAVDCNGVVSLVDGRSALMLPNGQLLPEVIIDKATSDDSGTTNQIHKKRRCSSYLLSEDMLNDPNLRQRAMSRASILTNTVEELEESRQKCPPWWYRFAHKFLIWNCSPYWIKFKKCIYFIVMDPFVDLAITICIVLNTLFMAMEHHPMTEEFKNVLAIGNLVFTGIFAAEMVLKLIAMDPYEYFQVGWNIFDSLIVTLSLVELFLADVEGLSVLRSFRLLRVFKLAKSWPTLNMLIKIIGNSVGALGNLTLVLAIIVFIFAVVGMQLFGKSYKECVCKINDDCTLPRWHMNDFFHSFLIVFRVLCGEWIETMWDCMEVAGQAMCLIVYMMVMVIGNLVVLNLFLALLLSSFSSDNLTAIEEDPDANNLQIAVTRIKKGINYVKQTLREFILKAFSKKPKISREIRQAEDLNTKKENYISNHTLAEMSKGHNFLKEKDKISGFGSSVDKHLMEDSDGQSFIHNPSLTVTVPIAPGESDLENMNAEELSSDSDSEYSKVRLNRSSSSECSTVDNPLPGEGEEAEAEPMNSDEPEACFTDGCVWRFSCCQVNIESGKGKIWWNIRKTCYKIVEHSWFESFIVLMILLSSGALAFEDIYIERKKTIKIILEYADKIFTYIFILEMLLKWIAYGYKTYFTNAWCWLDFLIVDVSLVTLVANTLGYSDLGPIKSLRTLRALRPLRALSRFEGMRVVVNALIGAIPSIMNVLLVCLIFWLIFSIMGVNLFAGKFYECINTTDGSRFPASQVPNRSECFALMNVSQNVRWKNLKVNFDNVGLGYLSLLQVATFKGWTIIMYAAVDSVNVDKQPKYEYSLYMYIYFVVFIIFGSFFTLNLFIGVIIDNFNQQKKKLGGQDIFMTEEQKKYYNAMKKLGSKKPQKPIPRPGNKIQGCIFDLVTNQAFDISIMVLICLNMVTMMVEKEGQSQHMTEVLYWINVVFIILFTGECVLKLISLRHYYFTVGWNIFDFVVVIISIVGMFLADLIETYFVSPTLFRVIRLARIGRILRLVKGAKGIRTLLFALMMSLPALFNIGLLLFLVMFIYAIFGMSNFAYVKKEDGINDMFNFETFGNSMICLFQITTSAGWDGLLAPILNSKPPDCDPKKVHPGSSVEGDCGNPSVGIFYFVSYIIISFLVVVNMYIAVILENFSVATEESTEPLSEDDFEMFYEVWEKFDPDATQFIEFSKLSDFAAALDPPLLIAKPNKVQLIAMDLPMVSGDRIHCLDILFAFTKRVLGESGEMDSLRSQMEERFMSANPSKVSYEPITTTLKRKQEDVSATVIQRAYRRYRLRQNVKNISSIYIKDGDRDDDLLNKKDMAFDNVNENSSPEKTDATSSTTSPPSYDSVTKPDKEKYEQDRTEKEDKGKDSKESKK

[9] = system: HT-29; experiment: Antiproliferative activity against human HT-29 cells assessed as reduction in cell viability incubated for 24 hrs in hypoxia condition by MTT assay; format: functional, cell-based; details: HT-29, 24 h
[10] = system: GTPase KRas (Homo sapiens), P01116 [UNDEFINED MUTATION]; experiment: Inhibition of KRas mutant in human HCT116 cells […] assessed as cell viability by measuring ATP; format: cell-based
[11] = system: HeLa; experiment: Cell cycle arrest in human HeLa cells assessed as effect on 4N stage incubated for 21 hrs by propidium iodide based flow cytometry; format: functional
[12] = system: GTPase KRas (Homo sapiens), P01116 [UNDEFINED MUTATION]; experiment: Inhibition of KRas mutant in human HCT116 cells assessed as cell viability by measuring ATP at 20 uM relative to control; format: cell-based
[13] = system: GTPase KRas (Homo sapiens), P01116 [UNDEFINED MUTATION]; experiment: Inhibition of KRas mutant in human DLD1 cells assessed as cell viability by measuring ATP at 2 uM relative to control; format: cell-based
[14] = system: GTPase KRas (Homo sapiens), P01116 [UNDEFINED MUTATION]; experiment: Inhibition of KRas mutant in human SW480 cells assessed as cell viability by measuring ATP at 2 uM relative to control; format: cell-based
[15] = system: GTPase KRas (Homo sapiens), P01116 [UNDEFINED MUTATION]; experiment: Inhibition of KRas mutant in human SW480 cells assessed as cell viability by measuring ATP; format: cell-based
[16] = system: GTPase KRas (Homo sapiens), P01116 [UNDEFINED MUTATION]; experiment: Inhibition of KRas mutant in human SW480 cells assessed as cell viability by measuring ATP at 20 uM relative to control; format: cell-based
[17] = system: GTPase KRas (Homo sapiens), P01116 [UNDEFINED MUTATION]; experiment: Inhibition of KRas mutant in human HCT116 cells […] assessed as cell viability by measuring ATP at 2 uM relative to control; format: cell-based
[18] = Activation of wnt pathway in mouse C2C12 cells assessed as increase in beta-catenin activity; format: cell-based
[19] = system: GTPase KRas (Homo sapiens), P01116 [UNDEFINED MUTATION]; experiment: Inhibition of KRas mutant in human DLD1 cells assessed as cell viability by measuring ATP at 0.2 uM relative to control; format: cell-based
[20] = system: CYP1A1; experiment: Selectivity index, ratio of IC50 of cytotoxicity against CHO cells to IC50 for bioactivation in CYP1A1 (unknown origin) transfected CHO cells assessed as CYP1A1-mediated drug activation by measuring reduction in cell viability; format: cell-based; details: hamster, CHO cells and CYP1A1-transfected CHO cells; read-out: Ratio IC50
[21] = system: HeLa; experiment: Cell cycle arrest in human HeLa cells assessed as effect on G1 phase incubated for 21 hrs by propidium iodide based flow cytometry; format: functional
[22] = system: CHO; experiment: Cytotoxicity against CHO cells assessed as reduction in cell viability; format: cell-based; details: Cricetulus griseus
[23] = system: HT-29; experiment: Selectivity index, ratio of IC50 of antiproliferative activity against human HT-29 cells in normoxia to IC50 of antiproliferative activity against human HT-29 cells in hypoxia condition; format: functional
[24] = system: GTPase KRas (Homo sapiens), P01116 [UNDEFINED MUTATION]; experiment: Inhibition of KRas mutant in human HCT116 cells assessed as cell viability by measuring ATP at 2 uM relative to control; format: cell-based
[25] = system: GTPase KRas (Homo sapiens), P01116 [UNDEFINED MUTATION]; experiment: Inhibition of KRas mutant in human SW480 cells assessed as cell viability by measuring ATP at 0.2 uM relative to control; format: cell-based
[26] = target: Apolipoprotein C-III (Homo sapiens) (UniProt P02656); experiment: Inhibition of human APOC3 at 40 uM relative to control
Chain of Apolipoprotein C-III (Homo sapiens) (P02656 whole entry): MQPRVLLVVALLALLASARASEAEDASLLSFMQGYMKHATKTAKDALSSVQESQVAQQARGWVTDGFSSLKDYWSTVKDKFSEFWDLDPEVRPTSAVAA

[27] = target: Microtubule-associated protein tau (Homo sapiens) (UniProt P10636); experiment: Inhibition of human Tau at 40 uM relative to control
Chain of Microtubule-associated protein tau (Homo sapiens) (P10636 whole entry): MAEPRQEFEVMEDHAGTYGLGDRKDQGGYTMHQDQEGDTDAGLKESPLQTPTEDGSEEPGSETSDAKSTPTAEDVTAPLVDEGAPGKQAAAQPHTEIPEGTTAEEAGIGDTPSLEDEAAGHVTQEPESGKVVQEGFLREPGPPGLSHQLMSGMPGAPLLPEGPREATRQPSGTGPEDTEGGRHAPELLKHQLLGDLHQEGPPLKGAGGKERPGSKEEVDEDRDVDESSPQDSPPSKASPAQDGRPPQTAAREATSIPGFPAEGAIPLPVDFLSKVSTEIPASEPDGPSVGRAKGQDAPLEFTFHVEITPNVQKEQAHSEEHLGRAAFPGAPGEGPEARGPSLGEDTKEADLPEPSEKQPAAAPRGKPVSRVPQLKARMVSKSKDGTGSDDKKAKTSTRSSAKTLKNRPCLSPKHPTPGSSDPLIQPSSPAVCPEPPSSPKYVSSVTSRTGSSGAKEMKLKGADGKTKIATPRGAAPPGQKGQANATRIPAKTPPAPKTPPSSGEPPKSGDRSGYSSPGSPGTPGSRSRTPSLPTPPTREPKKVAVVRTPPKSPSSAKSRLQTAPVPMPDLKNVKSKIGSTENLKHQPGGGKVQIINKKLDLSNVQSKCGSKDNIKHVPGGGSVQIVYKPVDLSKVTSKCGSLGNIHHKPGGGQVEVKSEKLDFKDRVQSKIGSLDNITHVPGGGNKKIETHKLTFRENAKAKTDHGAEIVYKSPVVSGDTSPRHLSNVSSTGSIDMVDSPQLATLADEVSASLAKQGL

[28] = system: GTPase KRas (Homo sapiens), P01116 [UNDEFINED MUTATION]; experiment: Inhibition of KRas mutant in human HCT116 cells assessed as cell viability by measuring ATP; format: cell-based
[29] = system: GTPase KRas (Homo sapiens), P01116 [UNDEFINED MUTATION]; experiment: Inhibition of KRas mutant in human DLD1 cells assessed as cell viability by measuring ATP at 20 uM relative to control; format: cell-based
[30] = system: GTPase KRas (Homo sapiens), P01116 [UNDEFINED MUTATION]; experiment: Inhibition of KRas mutant in human HCT116 cells assessed as cell viability by measuring ATP at 0.2 uM relative to control; format: cell-based
[31] = system: HT-29; experiment: Antiproliferative activity against human HT-29 cells assessed as reduction in cell viability incubated for 24 hrs by MTT assay; format: functional, cell-based; details: HT-29, 24 h
[32] = system: HeLa; experiment: Cell cycle arrest in human HeLa cells assessed as effect on S phase incubated for 21 hrs by propidium iodide based flow cytometry; format: functional
[33] = system: GTPase KRas (Homo sapiens), P01116 [UNDEFINED MUTATION]; experiment: Inhibition of KRas mutant in human HCT116 cells […] assessed as cell viability by measuring ATP at 20 uM relative to control; format: cell-based
[34] = system: GTPase KRas (Homo sapiens), P01116 [UNDEFINED MUTATION]; experiment: Inhibition of KRas mutant in human HCT116 cells […] assessed as cell viability by measuring ATP at 0.2 uM relative to control; format: cell-based

CCCCc1c2c(c(C)c3c1C(=O)OC3)Oc1ccccc1O2
IC50 [1]: 1700 nM | inhibition [2]: 95% | EC50 [3]: 2100 nM | inhibition [4]: Dose-dependent effect | IC50 [5]: 2200 nM | EC50 [6]: 6700 nM | inhibition [7]: 93% | inhibition [8]: 76% | IC50 [9]: 7330 nM | inhibition [10]: Dose-dependent effect | EC50 [11]: 2000 nM | inhibition [12]: 78% | inhibition [13]: 65% | inhibition [14]: 73% | inhibition [15]: Dose-dependent effect | inhibition [16]: 138% | inhibition [17]: 63% | EC50 [18]: > 20000 nM | inhibition [19]: 17% | selectivity ratio [20]: 3.7 | EC50 [21]: > 10000 nM | IC50 [22]: 1480 nM | Ratio IC50 [23]: 0.24 | inhibition [24]: 66% | inhibition [25]: 17% | inhibition [26]: 89% | inhibition [27]: 92% | inhibition [28]: Dose-dependent effect | inhibition [29]: 91% | inhibition [30]: 5% | IC50 [31]: 1730 nM | IC50 [32]: > 10000 nM | inhibition [33]: 80% | inhibition [34]: 67%
